{"source": "patent US20050176829A1", "about": "“Methods for treating hypothyroidism” (priority 2003, published 2005)", "key": {"[1]": {"assay": "Serum half-life of T3 after bolus injection in thyroidectomized rats", "format": "in vivo", "settings": "Sprague-Dawley, rat, intravenous, 1 ug"}, "[2]": {"assay": "Serum T3, free T3 and T4 levels in hypothyroid (thyroidectomized) rats after T3 infusion or bolus injection (radioimmunoassay)", "format": "in vivo, rat", "source_text": "FIG. 2. […] Three rats per each group.\nMethods and Materials—Animal Studies. […] Results are expressed as means ±SE."}, "[3]": {"system": "alpha-myosin heavy chain (alpha-MHC)", "procedure": "FIG. 3A-3B. […] A: Representative agarose gel showing alpha-MHC hnRNA PCR products stained with ethidium bromide and visualized with ultraviolet light. PCR fragment size is 335 basepairs (bp). B: Quantification of hnRNA alpha-MHC 335 bp fragment from left ventricular RNA shown as a percentage of euthyroid (normal) values for three rats.\nFIG. 4. […] Three 200 gram rats per each group.\nFIG. 6. […] Hearts were removed after 3-4 days (24 hours after the last injection), and RNA was extracted from the left ventricles. Transcription was measured by quantitation of α-MHC hnRNA. The content of α-MHC hnRNA measured in these hearts is expressed as the percent of euthyroid (100%).\nMethods and Materials—Animal Studies. Studies were conducted using adult Sprague-Dawley rats weighing between 180 and 225 g. Thyroidectomies were performed by surgical removal of the thyroid gland. […] After animals were sacrificed, the left ventricle of the heart was immediately frozen in liquid nitrogen and then treated for RNA extraction as previously described (Balkman et al. Endocrinology 130: 1002-6, 1992). Reverse transcription polymerase chain reaction (RT-PCR) assay of total left ventricular RNA for alpha-myosin heavy chain (alpha-MHC) heteronuclear (hn) RNA was carried out as previously described (Danzi and Klein, Thyroid 12(6): 467-72, 2002; Danzi et al. Am J Physiol Heart Circ Physiol. 284(6) :H2255-62, 2003). Results are expressed as means ±SE.\nExpression of the cardiac- specific gene alpha-myosin heavy chain (alpha-MHC) is a sensitive indicator of normal cardiac function (Ojamaa et al. CVR&R 23: 20-6, 2002; Danzi et al. Am J Physiol Heart Circ Physiol. 284(6) :H2255-62, 2003; Danzi and Klein, Thyroid 12(6): 467-72, 2002; Ojamma and Klein, Endocrinology 132: 1002-6, 1993)."}, "[4]": {"assay": "Heart rate after daily bolus administration of T3 in rats", "format": "in vivo, rat", "settings": "for T3max−Conmax: max HR T3 minus max HR saline control"}, "[5]": {"settings": "hypothyroid rats, T3 infusion 7.0 μg/d, 1 week; cited from earlier work"}, "[6]": {"settings": "rats (Goslings et al.); cited from earlier work"}, "[7]": {"settings": "cited from earlier work"}, "clinical": {"assay": "clinical", "settings": "human, in vivo, metabolic clearance rate (MCR) of T3"}, "[8]": {"settings": "daily bolus T3 0.8 μg/200 gram rat, day 1"}, "[9]": {"settings": "daily bolus T3 0.8 μg/200 gram rat, day 2"}, "[10]": {"settings": "daily bolus T3 0.8 μg/200 gram rat, day 3"}, "[11]": {"settings": "daily bolus T3 0.8 μg/200 gram rat, day 4"}, "[12]": {"settings": "daily bolus T3 0.8 μg/200 gram rat, day 5"}, "[13]": {"settings": "day 6, no dosing of T3 on this day"}, "[14]": {"settings": "day 7, no dosing of T3 on this day"}}, "note": "“Also recorded” adds a separate entry of the source. Where two headings read alike, the source gives them in different places. Marks after values point to notes of the source that are not given here.", "data": [{"smiles": "N[C@@H](Cc1cc(I)c(Oc2ccc(O)c(I)c2)c(I)c1)C(=O)O", "note": "[T3, triiodothyronine]", "values": [{"measurement": "half-life", "setting": "[1]", "result": 7, "unit": "h"}, {"measurement": "concentration at 3 days", "setting": "[2]; Sprague-Dawley, rat, serum, subcutaneous, 0.25 μg/d", "result": "0.44 ± 0.03", "unit": "ng/mL"}, {"measurement": "concentration at 3 days", "setting": "[2]; Sprague-Dawley, rat, serum, subcutaneous, 0.8 μg/d", "result": "0.78 ± 0.06", "unit": "ng/mL"}, {"measurement": "concentration at 1 week", "setting": "[2]; Sprague-Dawley, rat, serum, subcutaneous, 1 μg/d", "result": "1.32 ± 0.14", "unit": "ng/mL"}, {"measurement": "serum T3 levels versus normal", "setting": "[2]; hypothyroid rats, 0.8 μg daily bolus injection, 24 hours after last injection", "result": "not effective in restoring serum T3 levels to normal"}, {"measurement": "serum T3 levels versus normal", "setting": "[2]; hypothyroid rats, 0.8 μg/day by subcutaneous miniosmotic pump infusion, blood sampled at 72", "result": "restored to normal; also recorded: restores serum T3 levels to about normal"}, {"measurement": "serum T3 levels versus normal", "setting": "[2]; hypothyroid rats, T3 infusion 0.25 μg/day and 0.5 μg/day", "result": "elevates serum T3 above levels observed in thyroidectomized animals, but does not fully restore serum T3 levels to normal"}, {"measurement": "serum T3 levels versus normal", "setting": "[2]; hypothyroid rats, T3 infusion at doses above 0.8 μg/day", "result": "elevated serum T3 levels above normal"}, {"measurement": "serum T3 levels versus normal", "setting": "[2]; thyroidectomized rats, single bolus injection 1 μg T3/day for 7 days", "result": "failed to restore serum T3 levels to normal"}, {"measurement": "alpha-MHC expression versus normal", "setting": "[3]; hypothyroid rats, T3 infusion 0.25 and 0.5 μg/day", "result": "normalization of alpha-MHC expression was observed"}, {"measurement": "alpha-myosin HC expression versus normal", "setting": "[3]; hypothyroid rats, bolus daily injections 0.25-0.8 μg T3/day", "result": "not by bolus daily injections"}, {"measurement": "alpha-myosin HC expression versus normal", "setting": "[3]; hypothyroid rats, constant infusion 0.25-0.8 μg T3/day, 3-4 days", "result": "restored to normal"}, {"measurement": "alpha-MHC cardiac transcription", "setting": "[3]; thyroidectomized rats, bolus injection 1 μg T3 each day for 2 days", "result": "60 % of normal"}, {"measurement": "alpha-MHC expression (hnRNA)", "setting": "[3]; thyroidectomized rats, single bolus injection of 1 μg T3, time course", "result": "transient increase in alpha-MHC expression"}, {"measurement": "Δ HR", "setting": "[4]; AVG of days 1-7", "result": 84}, {"measurement": "min HR", "setting": "[4]; AVG of days 1-7, P < 0.001 vs control", "result": "307^+"}, {"measurement": "max HR", "setting": "[4]; AVG of days 1-7, P < 0.002 vs control", "result": "390^"}, {"measurement": "maximum heart rate versus normal", "setting": "[4]; bolus daily injections of T3 at 0.8 μg", "result": "increasing maximum heart rate above normal"}, {"measurement": "max HR", "setting": "[4]; [8]", "result": 345}, {"measurement": "min HR", "setting": "[4]; [8]", "result": 270}, {"measurement": "Δ HR", "setting": "[4]; [8]", "result": 75}, {"measurement": "max HR", "setting": "[4]; [9]", "result": 370}, {"measurement": "min HR", "setting": "[4]; [9]", "result": 315}, {"measurement": "Δ HR", "setting": "[4]; [9]", "result": 55}, {"measurement": "max HR", "setting": "[4]; [10]", "result": "385**"}, {"measurement": "min HR", "setting": "[4]; [10]", "result": 320}, {"measurement": "Δ HR", "setting": "[4]; [10]", "result": 65}, {"measurement": "max HR", "setting": "[4]; [11]", "result": "410**"}, {"measurement": "min HR", "setting": "[4]; [11]", "result": 320}, {"measurement": "Δ HR", "setting": "[4]; [11]", "result": 90}, {"measurement": "max HR", "setting": "[4]; [12]", "result": "415**"}, {"measurement": "min HR", "setting": "[4]; [12]", "result": 300}, {"measurement": "Δ HR", "setting": "[4]; [12]", "result": 115}, {"measurement": "max HR", "setting": "[4]; [13]", "result": "425*"}, {"measurement": "min HR", "setting": "[4]; [13]", "result": "300*"}, {"measurement": "Δ HR", "setting": "[4]; [13]", "result": 125}, {"measurement": "max HR", "setting": "[4]; [14]", "result": "380*"}, {"measurement": "min HR", "setting": "[4]; [14]", "result": "325*"}, {"measurement": "Δ HR", "setting": "[4]; [14]", "result": 65}, {"measurement": "T3max−Conmax", "setting": "[4]; AVG", "result": 43}, {"measurement": "T3max−Conmax", "setting": "[4]; day 1", "result": 0}, {"measurement": "T3max−Conmax", "setting": "[4]; day 2", "result": 10}, {"measurement": "T3max−Conmax", "setting": "[4]; day 3", "result": 45}, {"measurement": "T3max−Conmax", "setting": "[4]; day 4", "result": 70}, {"measurement": "T3max−Conmax", "setting": "[4]; day 5", "result": 65}, {"measurement": "T3max−Conmax", "setting": "[4]; day 6 (no T3 dosing)", "result": 70}, {"measurement": "T3max−Conmax", "setting": "[4]; day 7 (no T3 dosing)", "result": 40}, {"measurement": "Heart weight/Body weight", "setting": "[5]", "result": "3.64 ± 0.07^a"}, {"measurement": "metabolic clearance rate (MCR) of T3", "setting": "[6]", "result": 2.93, "unit": "mL/min/kg"}, {"measurement": "metabolic clearance rate (MCR) of T3", "setting": "[7]; humans (Chopra and Sabatino)", "result": 24, "unit": "L/day/70 kg"}, {"measurement": "metabolic clearance rate (MCR) of T3", "setting": "[7]; hypothyroid humans (Bianchi et al.)", "result": 11.4, "unit": "L/day/m^2"}, {"measurement": "clearance", "setting": "clinical", "result": "~0.217", "unit": "mL/min/kg"}]}]}
